Assay results from patent US12351565B2, “Aromatic compound and preparation method therefor and use thereof” (SHANGHAI JIANHE PHARMACEUTICAL & TECHNOLOGY CO. LTD., priority 2018, dated 2025).

Key:
hERG potassium channel = target: T1, hERG potassium channel (Homo sapiens, UniProt Q12809); assay: hERG potassium channel inhibition experiment (automatic patch clamp, CHO-hERG cells); format: cell-based; settings: Qpatch, highest tested concentration 40 μM, read-out: IC50, blocking effect on the hERG potassium current
T1 construct: expressed in transfected cells
T1 sequence (Q12809 whole entry): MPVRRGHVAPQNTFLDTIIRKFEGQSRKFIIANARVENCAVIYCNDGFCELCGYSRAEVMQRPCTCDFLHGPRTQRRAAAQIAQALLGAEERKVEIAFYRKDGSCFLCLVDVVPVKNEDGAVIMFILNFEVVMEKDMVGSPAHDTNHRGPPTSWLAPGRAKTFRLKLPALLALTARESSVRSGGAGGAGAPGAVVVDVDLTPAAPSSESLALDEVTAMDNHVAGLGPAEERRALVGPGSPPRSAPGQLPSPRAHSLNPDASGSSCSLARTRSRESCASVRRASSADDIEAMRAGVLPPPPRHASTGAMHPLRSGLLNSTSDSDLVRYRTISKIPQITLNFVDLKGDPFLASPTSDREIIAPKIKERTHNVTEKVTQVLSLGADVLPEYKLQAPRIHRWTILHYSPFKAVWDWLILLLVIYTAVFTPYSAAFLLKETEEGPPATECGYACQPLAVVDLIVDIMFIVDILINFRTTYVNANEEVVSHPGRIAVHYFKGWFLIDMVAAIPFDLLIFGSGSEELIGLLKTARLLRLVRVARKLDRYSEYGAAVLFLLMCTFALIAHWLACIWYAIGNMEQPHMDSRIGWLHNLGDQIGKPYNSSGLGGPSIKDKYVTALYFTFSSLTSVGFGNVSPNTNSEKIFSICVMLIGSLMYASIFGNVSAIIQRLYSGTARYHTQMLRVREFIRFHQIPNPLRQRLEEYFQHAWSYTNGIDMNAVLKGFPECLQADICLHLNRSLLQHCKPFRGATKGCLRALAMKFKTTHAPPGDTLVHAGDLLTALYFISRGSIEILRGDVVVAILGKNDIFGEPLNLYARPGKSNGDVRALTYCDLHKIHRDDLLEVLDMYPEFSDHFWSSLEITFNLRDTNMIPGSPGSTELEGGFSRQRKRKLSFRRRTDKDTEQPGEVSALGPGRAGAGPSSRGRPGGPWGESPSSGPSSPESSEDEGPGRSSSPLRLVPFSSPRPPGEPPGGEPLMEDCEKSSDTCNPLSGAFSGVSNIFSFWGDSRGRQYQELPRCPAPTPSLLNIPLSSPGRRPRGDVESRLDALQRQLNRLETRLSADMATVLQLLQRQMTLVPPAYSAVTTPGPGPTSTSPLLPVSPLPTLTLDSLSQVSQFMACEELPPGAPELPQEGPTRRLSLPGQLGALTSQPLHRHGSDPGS
Description: Fully automatic patch clamps were used to test the blocking effect of the compounds of the present invention on the hERG potassium current on a stable cell line transfected with hERG potassium channels.
CHO-hERG cells were cultured in 175 cm^2 culture flask. When the cell grew to 60-80% confluence, the culture medium was removed. The cells were washed with 7 ml PBS (Phosphate Buffered Saline) once, and then 3 ml Detachin was added to digest.
After the digestion was completed, 7 ml culture medium was added to neutralize. The mixture was centrifuged, and after the supernatant was removed, 5 ml culture medium was added to resuspend to ensure the cell density was 2×10^6-5×10^6/ml.
Single-cell high-impedance sealing and whole-cell mode formation were all automatically completed by using the Qpatch instrument. After the recording mode was obtained, the cell was clamped at −80 millivolts. Before +40 millivolt depolarization stimulation for 5 seconds was given, −50 millivolt pre-voltage for 50 millisecond was first given, then repolarized to −50 millivolt for 5 seconds, and then returned to −80 millivolt. This voltage stimulus was applied every 15 seconds. After recording for 2 min, extracellular fluid was given, and recording was conducted for 5 min, and then the dosing process started. The compound concentration started from the lowest test concentration, and each test concentration was given for 2.5 min. […] At least 3 cells per concentration (n≥3) were tested.
20 mM compound mother liquor was diluted with extracellular fluid. 5 μL of 20 mM compound mother liquor was taken and added into 2495 μL extracellular fluid, so that it was diluted 500 times to 40 μM, and was then serially diluted 3 times in an extracellular fluid containing 0.2% DMSO to obtain the final concentration to be tested.
The highest tested concentration was 40 μM, and the concentrations were in order as follows: 40, 13.33, 4.44, 1.48, 0.49, 0.16 μM, totally 6 concentrations.
Experimental data were analyzed by XLFit software.

[1] = In vivo pharmacokinetic experiment in rats; settings: SD rats
Description: Healthy male SD rats were randomly divided into groups with 3 rats in each group, and the test compounds were administrated intragastrically or by intravenous injection. See Table 8 below for specific arrangements:
Each test compound was dissolved in physiological saline to prepare a certain concentration of solution for administration.
One day before administration, the rats were fasted and allowed to drink freely for 12-14 h. The rats were fed 4 h after administration. 0.030 mL of blood was took from each animal each time through the orbit, and anticoagulated with EDTAK2 anticoagulation. The collection time points were as follows: in PO group, 5 min, 10 min, 15 min, 30 min, 1 h, 2 h, 4 h, 6 h, 8 h, 24 h after administration of test substance; in IV group, 2 min, 5 min, 15 min, 30 min, 1 h, 2 h, 4 h, 6 h, 8 h, 24 h after administration of test substance. After blood samples were collected, they were placed on ice and centrifuged to separate the plasma within 30 minutes (centrifugation conditions: 5000 rpm, 10 minutes, 4° C.). The sample were stored at −80° C. before analysis.

C57 mice = assay: Forced swimming experiment, oral administration to mice; format: in vivo; settings: inhibition of immobility time, C57 mice
Summary of the method: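 Male C57 mice (6 weeks) dosed once orally at 20 mg/kg in 0.9% NaCl, tested 1 h and 24 h later after a 10 min pre-swim the day before. Immobility over the last 4 min of a 6 min swim (water 23-25° C); inhibition rate (%) calculated against blank group at each time.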

[2] = male, rat, iv, 5 mg/kg i.v., plasma
[3] = male, rat, po, 20 mg/kg p.o., plasma

**Q.** With `Cl.N[C@]1(c2ccc(C(F)(F)F)cc2)CCC[C@H](O)C1=O` [Compound 51, (2S,6S)-2-amino-6-hydroxy-2-(4-(trifluoromethyl)phenyl)cyclohexane-1-one hydrochloride] as the compound, how does the IC50 (hERG potassium channel) read?
**A.** > 40 µM

**Q.** And the AUC0-t ([1]; 5 mg/kg i.v., plasma)?
**A.** 19871 ngh/mL

**Q.** What about the “AUC0-∞” value ([1]; 5 mg/kg i.v., plasma) of the same compound?
**A.** 20688 ngh/mL

**Q.** What about the F ([1]; 20 mg/kg p.o.) of the same compound?
**A.** 86%

**Q.** What about the AUC0-t ([1]; 20 mg/kg p.o., plasma) of the same compound?
**A.** 68383 ngh/mL

**Q.** And the “AUC0-∞” value ([1]; 20 mg/kg p.o., plasma)?
**A.** 70298 ngh/mL

**Q.** And the MRT [1, 2]?
**A.** 6.15 h

**Q.** What about the half-life [1, 2] of the same compound?
**A.** 5.6 h

**Q.** What about the clearance ([1]; male, rat, plasma, iv, 5 mg/kg i.v.) of the same compound?
**A.** 4.03 mL/min/kg

**Q.** What about the Vd ([1]; male, rat, plasma, iv, 5 mg/kg i.v., read-out: Vss) of the same compound?
**A.** 1.49 L/kg

**Q.** What about the Cmax [1, 3] of the same compound?
**A.** 9350 ng/mL

**Q.** And the MRT [1, 3]?
**A.** 6.21 h

**Q.** What about the Tmax [1, 3] of the same compound?
**A.** 0.33 h

**Q.** And the half-life [1, 3]?
**A.** 4.74 h

**Q.** What about the “1 h inhibition rate” value (C57 mice; forced swimming 1 h after single oral (intragastric) 20 mg/kg) of the same compound?
**A.** 66.9 ± 0.3%

**Q.** What about the “24 h inhibition rate” value (C57 mice; forced swimming 24 h after single oral (intragastric) 20 mg/kg) of the same compound?
**A.** 38.6 ± 2.1%
